Like-named read-outs stand apart in the source and are kept apart here.
What was measured:
[1] = Solubility in aqueous solutions; format: physicochemical; conditions: read-out: concentration above which decreased solubility in aqueous solutions was displayed
Recombinant human TG2 [2] = biological target: T1, Recombinant human TG2 (Homo sapiens, UniProt P21980); assay: rhTG2 inhibition assay, continuous chromogenic substrate AL5, Kitz and Wilson conditions; format: biochemical; conditions: for kinact / Ki: * compounds fitted to double reciprocal model, 25 °C, pH 6.9, 100 µM AL5; for kinact/KI: * double reciprocal model, ** lowest concentrations of saturation plot fitted to a linear model; for Ki: irreversible inhibition
T1 construct: GST (with PSP protease site, plasmid pGST-PSP-rhTG2) (N, cleaved yes); made in house; host or cells: E. coli (BL21)
T1 sequence (P21980 1-687): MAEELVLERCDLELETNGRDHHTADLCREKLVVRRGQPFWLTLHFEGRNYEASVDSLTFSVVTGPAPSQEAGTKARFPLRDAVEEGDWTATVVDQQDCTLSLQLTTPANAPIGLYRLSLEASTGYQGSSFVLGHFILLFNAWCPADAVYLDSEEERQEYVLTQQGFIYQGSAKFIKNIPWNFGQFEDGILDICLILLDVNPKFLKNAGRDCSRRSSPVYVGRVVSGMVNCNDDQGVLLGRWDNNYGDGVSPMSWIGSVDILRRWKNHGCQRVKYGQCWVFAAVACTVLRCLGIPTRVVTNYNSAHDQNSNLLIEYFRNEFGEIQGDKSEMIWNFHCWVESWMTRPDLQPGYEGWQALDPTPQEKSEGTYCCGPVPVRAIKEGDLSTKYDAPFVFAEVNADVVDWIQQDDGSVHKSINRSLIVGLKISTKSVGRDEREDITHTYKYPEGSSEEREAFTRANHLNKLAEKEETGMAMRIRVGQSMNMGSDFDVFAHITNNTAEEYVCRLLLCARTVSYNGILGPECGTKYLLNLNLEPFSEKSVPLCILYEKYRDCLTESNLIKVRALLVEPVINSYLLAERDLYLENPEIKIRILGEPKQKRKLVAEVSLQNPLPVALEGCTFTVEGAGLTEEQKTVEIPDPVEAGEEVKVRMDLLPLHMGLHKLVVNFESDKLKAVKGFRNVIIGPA
Description: Relative to the original scaffold, we expected the potency of these novel chemical biology tools to decrease slightly, due to the additional bulk incorporated on the glutamate sidechain. Although we expected the sidechain moiety to be directed into bulk solvent, we were concerned that its mass and charge would disfavor the binding interaction. Therefore, we kinetically characterized these probes as rigorously as possible, in order to determine their relative affinity and reactivity. For most inhibitors we have made, including the parent inhibitor AA9 (Figure 1), we have been able to measure kinetic parameters under Kitz and Wilson conditions. This experimental approach is based on the use of a continuous activity assay and the measurement of first-order rate constants for the time-dependent inactivation of enzyme (see Figure 2A and Figures S1–S5 in Supplementary Materials). The dependence of these observed rate constants (kobs) on the inhibitor concentration divided by alpha ([I]/α) can then be fitted to a hyperbolic saturation model where the upper plateau represents the rate constant of inactivation (kinact), and the concentration providing half the rate constant of inactivation represents KI (Figure 2B). […] To compensate for this, the overall efficiency of the inhibitor (kinact/KI) can be derived from the slope of the linear region of the saturation plot (Figure 2C). To gauge the individual parameters, a double reciprocal fitting was also employed where KI can be calculated from the x-axis intercept and kinact can be calculated from the y-axis intercept (Figure 2D).
Recombinant human TG2 was expressed and purified using previously published protocols. The inhibition was monitored using a continuous chromogenic substrate AL5 [38] under Kitz and Wilson conditions. In brief, 125 µL of assay buffer composed of 111.11 mM MOPS, 15.56 CaCl2 pH 6.9 was added to a 1.5 mL Eppendorf tube to achieve final assay concentrations of 50 mM MOPS and […] CaCl2. To the tube was then added the respective concentration of inhibitor from an aqueous working stock (<5% DMSO final conditions). Various volumes of water were then added to ensure the final volumes were equal. The AL5 substrate was added to the Eppendorf tube as a 5 µL 5.56 mM solution in DMSO to obtain a final assay concentration of 100 µM. A 96-well polystyrene microplate then had 180 µL of the assay mixture added to it. The enzymatic reaction was finally initiated by addition of 20 µL 5 mU prediluted TG2 in assay buffer using a multichannel pipette. The reaction was monitored at 405 nm using a BioTek Synergy 4 plate reader for 20 min at 25 °C. A positive control with no inhibitor and a blank with no enzyme nor inhibitor were also included. The blank subtracted kinetic curves were then analyzed. The observed first-order rate constants of inactivation were gathered through a one-phase association model using the GraphPad software package. The rate constants were then fit to various models to elucidate the inhibition parameters. If saturation was achieved, they were fit to a saturation model versus the inhibitor concentration divided by alpha (where α=1+Substrate/Km ). A linear regression of the linear region of this saturation fitting was calculated to obtain a ratio of kinact/KI. A further double reciprocal model was used if saturation could not be observed due to the limitations in sensitivity of the assay or if solubility issues were present.

Recombinant human TG2 [3] = biological target: T1, Recombinant human TG2; parameters: method as in PMID 36846375; conditions: previous lead compound, Figure 1; cited from earlier work
GST-TG2 fusion protein = biological target: T2, GST-TG2 fusion protein (Homo sapiens, UniProt P21980); assay: Pull-down of rhTG2 from E. coli lysate (CuAAC with desthiobiotin-PEG3-azide, streptavidin resin); format: binding; conditions: E. coli lysate overexpressing GST-rhTG2; elution with 4 mM biotin
T2 construct: made in house; host or cells: BL21 E. coli (crude lysate)
Description: As a proof of concept, previously described BL21 E. coli cells were transformed with a plasmid (pGST-PSP-rhTG2) to induce overexpression of recombinant human TG2 (rhTG2) as a GST fusion protein [47]. The bacterial cells were then lysed and exposed to the propargylated inhibitor 31 to allow for labelling. A subsequent CuAAC reaction was then performed in the same cell lysate to incorporate the desthiobitoin-PEG3-azide into labelled TG2. The lysate was then passed over streptavidin resin to isolate all proteins that had reacted with inhibitor 31. These proteins were then eluted from the resin using a solution of 4 mM biotin, and the eluant was analyzed by SDS-PAGE. […] This validates not only the TG2-selectivity of probe 31, but also the efficiency of the click reaction of the GST-TG2-31 adduct, allowing for the isolation of TG2 from cell lysate in a very mild manner.
A total of 400 µL of the aforementioned E. coli cell lysate combined with 133 µL of a solution of 75 µM 31 was added to a 1.5 mL Eppendorf tube. The labelling was allowed to occur for 25 min. Totals of 25 µL of a solution of 500 µM azide-PEG3-desthiobiotin 32 and 500 µM cupric sulfate in 20 mM HEPES at pH 8.0 were added to the tube. To initiate the click reaction, 100 µL of 150 µM sodium ascorbate solution in mQ H2O was added and gently rocked for 2.5 h at room temperature. […]

T2 sequence (P21980 with tags, fused parts or gaps): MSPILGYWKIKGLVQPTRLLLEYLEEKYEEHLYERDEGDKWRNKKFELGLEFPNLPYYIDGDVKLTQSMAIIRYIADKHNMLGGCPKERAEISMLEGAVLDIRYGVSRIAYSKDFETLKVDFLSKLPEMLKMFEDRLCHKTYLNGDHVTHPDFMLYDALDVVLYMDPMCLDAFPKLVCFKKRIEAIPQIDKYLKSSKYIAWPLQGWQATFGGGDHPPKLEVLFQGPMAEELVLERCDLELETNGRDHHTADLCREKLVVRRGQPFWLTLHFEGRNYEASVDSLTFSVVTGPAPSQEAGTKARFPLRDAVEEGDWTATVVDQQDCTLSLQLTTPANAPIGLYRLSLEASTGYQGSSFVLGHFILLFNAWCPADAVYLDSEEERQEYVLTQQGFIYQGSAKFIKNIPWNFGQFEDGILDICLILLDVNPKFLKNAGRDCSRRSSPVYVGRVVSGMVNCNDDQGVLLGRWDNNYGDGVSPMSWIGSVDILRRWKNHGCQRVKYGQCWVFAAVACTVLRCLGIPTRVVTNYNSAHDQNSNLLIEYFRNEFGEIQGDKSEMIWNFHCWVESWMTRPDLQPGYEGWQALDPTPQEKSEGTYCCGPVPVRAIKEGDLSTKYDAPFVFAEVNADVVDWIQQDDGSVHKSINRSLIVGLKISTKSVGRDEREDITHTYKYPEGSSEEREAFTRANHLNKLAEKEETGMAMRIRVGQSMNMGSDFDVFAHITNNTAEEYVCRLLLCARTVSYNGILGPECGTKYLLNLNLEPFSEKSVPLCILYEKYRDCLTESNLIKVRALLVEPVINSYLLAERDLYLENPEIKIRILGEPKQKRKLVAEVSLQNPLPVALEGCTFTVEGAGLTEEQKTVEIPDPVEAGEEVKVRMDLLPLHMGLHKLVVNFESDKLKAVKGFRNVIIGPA

Row | solubility [1] | kinact (Recombinant human TG2 [2]) | kinact/KI (Recombinant human TG2 [2]) | Ki (Recombinant human TG2 [2]) | Compound | kinact/KI (Recombinant human TG2 [3]) | proteins isolated by pull-down (TG2 selectivity) (GST-TG2 fusion protein)
1 | > 25 µM | 0.004 s⁻¹ | 3130 M⁻¹ s⁻¹ | 1300 ± 1100 nM | C=CC(=O)NCCCC[C@H](NC(=O)OCc1ccccc1)C(=O)N1CCN(C(=O)[C@H](CCC(=O)NCCCCCNC(=O)c2cc3ccc(N(CC)CC)cc3oc2=O)NC(=O)c2cccc3ccccc23)CC1 [Compound 22] | – | –
2 | – | – | – | – | C=CC(=O)NCCCC[C@H](NC(=O)OCc1ccccc1)C(=O)N1CCN(C(=O)c2cccc3ccccc23)CC1 [AA9] | 1670 M⁻¹ s⁻¹ | –
3 | – | 0.00767 s⁻¹ | 8280 M⁻¹ s⁻¹ | 900 ± 500 nM | C#CCNC(=O)CC[C@H](NC(=O)c1cccc2ccccc12)C(=O)N1CCN(C(=O)[C@H](CCCCNC(=O)C=C)NC(=O)OCc2ccccc2)CC1 [Compound 31] | – | the only protein efficiently isolated in this experiment corresponds to the GST-TG2 fusion protein

Reference: article PMC10454375, “Cell-Impermeable Inhibitors Confirm That Intracellular Human Transglutaminase 2 Is Responsible for the Transglutaminase-Associated Cancer Phenotype” (International Journal of Molecular Sciences, 2023)
